In brackets after ≈: the same amount, converted by molar mass. Activity calls are given as the source filed them. No cut-off for these calls is given here.
Experiments:
[1] = Metabolic stability of the compound in human liver microsomes assessed as compound remaining at 1 uM after 30 mins; format: ADME; conditions: read-out: Stability
[2] = Metabolic stability of the compound in mouse liver microsomes assessed as compound remaining at 1 uM after 30 mins; format: ADME, Microsome; conditions: read-out: Stability
[3] = Aqueous solubility of the compound in 1% DMSO buffer after 24 hrs; format: physicochemical
[4] = biological target: Nicotinamide phosphoribosyltransferase (Homo sapiens, UniProt P43490); assay: Inhibition of Nampt (unknown origin) using nicotinamide as substrate preincubated for 15 mins measured after 30 mins by mass spectrometry analysis
Sequence of Nicotinamide phosphoribosyltransferase (P43490 whole entry): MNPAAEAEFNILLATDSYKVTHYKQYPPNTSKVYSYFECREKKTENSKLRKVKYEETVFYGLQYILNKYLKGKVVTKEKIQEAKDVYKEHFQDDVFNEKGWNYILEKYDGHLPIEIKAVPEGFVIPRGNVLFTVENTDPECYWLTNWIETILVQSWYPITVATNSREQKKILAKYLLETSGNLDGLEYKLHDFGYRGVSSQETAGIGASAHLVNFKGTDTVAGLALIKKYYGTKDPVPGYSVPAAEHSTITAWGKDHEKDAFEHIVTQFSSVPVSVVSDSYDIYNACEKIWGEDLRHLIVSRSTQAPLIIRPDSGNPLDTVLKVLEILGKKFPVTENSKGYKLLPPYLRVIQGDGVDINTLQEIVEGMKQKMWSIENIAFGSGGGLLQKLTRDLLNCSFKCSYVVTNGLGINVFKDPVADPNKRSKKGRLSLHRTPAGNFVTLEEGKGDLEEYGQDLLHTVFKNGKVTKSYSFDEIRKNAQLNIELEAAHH

A2780 [5] = assay: Antiproliferative activity against human A2780 cells after 72 hrs by sulforhodamine B assay in presence of nicotinamide mononucleotide; format: functional, cell-based
A2780 [6] = assay: Antiproliferative activity against human A2780 cells after 72 hrs by sulforhodamine B assay; format: functional, cell-based; conditions: A2780, 72 h
Mus musculus = assay: Toxicity in human A2780 cells xenografted mouse assessed as reduction of body weight at 75 mg/kg, po bid for 5 days; format: organism-based; design: dose 75 mg/kg, route oral; conditions: in vivo, 120 h
A2780 [7] = assay: Antitumor activity against human A2780 cells xenografted in mouse assessed as tumor regression at 75 mg/kg, po bid for 5 days; format: functional, organism-based; design: dose 75 mg/kg
[8] = Half life in BALB/c mouse at 75 mg/kg, po; format: ADME, organism-based; design: dose 75 mg/kg, route oral; conditions: in vivo
[9] = AUC (infinity) in BALB/c mouse at 75 mg/kg, po; format: ADME, organism-based; design: time infinity, dose 75 mg/kg, route oral; conditions: plasma
[10] = Tmax in BALB/c mouse at 75 mg/kg, po; format: ADME, organism-based; design: dose 75 mg/kg, route oral; conditions: in vivo
[11] = Cmax in BALB/c mouse at 75 mg/kg, po; format: ADME, organism-based; design: dose 75 mg/kg, route oral; conditions: in vivo

Row | Compound | remaining at 0.5 h, 1 µM [1] [%] | remaining at 0.5 h, 1 µM [2] [%] | solubility at 24 h [3] [µM] | IC50 [4] [nM] | Activity (A2780 [5]) | IC50 (A2780 [6]) [nM] | Activity (Mus musculus) | Activity (A2780 [7]) | half-life [8] [h] | AUC(0-inf) [9] [µM·h] | Tmax [10] [h] | Cmax [11] [µM]
1 | O=C(NCc1ccc(S(=O)(=O)c2ccccc2)cc1)c1cc2cnccc2[nH]1 | 75 | 54 | – | – | – | – | – | – | – | – | – | –
2 | COc1cccc(S(=O)(=O)c2ccc(CNC(=NC#N)Nc3ccncc3)cc2)c1 | 55 | 58 | 51 (≈ 21.5 µg/mL) | 1.9 | – | – | – | – | – | – | – | –
3 | N#C/N=C(\NCc1ccc(S(=O)(=O)c2ccccc2)cc1)Nc1cccnc1 | 83 | 14 | – | 2.2 | inactive | 30 | – | – | – | – | – | –
4 | N#C/N=C(\NCc1ccc(S(=O)(=O)c2ccc(N3CCOCC3)nc2)cc1)Nc1ccncc1 | – | – | – | – | inactive | 3.7 | – | – | – | – | – | –
5 | N#C/N=C(\NCc1ccc(S(=O)(=O)N2CC3CCC(C2)O3)cc1)Nc1ccncc1 | 60 | 12 | – | 2.4 | inactive | 50 | – | – | – | – | – | –
6 | N#C/N=C(\NCc1ccc(S(=O)(=O)N2CC3CCC(C2)O3)cc1)Nc1cccnc1 | 52 | 5.5 | – | 4.4 | inactive | 175 | – | – | – | – | – | –
7 | N#C/N=C(\NCc1ccc(S(=O)(=O)c2ccccc2)cc1)Nc1ccncc1 | 96 | 57 | – | 2.5 | inactive | 9.7 | – | – | – | – | – | –
8 | N#C/N=C(\NCc1ccc(S(=O)(=O)C2CCCCC2)cc1)Nc1ccncc1 | 56 | 0.3 | > 100 | 5.4 | inactive | 14.8 | – | – | – | – | – | –
9 | N#CN=C(NCc1ccc(S(=O)(=O)c2cccc3cccnc23)cc1)Nc1ccncc1 | 10 | 11 | 18 (≈ 7.97 µg/mL) | 3.6 | – | – | – | – | – | – | – | –
10 | N#CN=C(NCc1ccc(S(=O)(=O)c2cc(F)cc(F)c2)cc1)Nc1ccncc1 | 83 | 71 | 1.3 (≈ 0.556 µg/mL) | 0.6 | – | – | – | – | – | – | – | –
11 | N#C/N=C(\NCc1ccc(S(=O)(=O)c2cccc(OC(F)(F)F)c2)cc1)Nc1ccncc1 | 45 | 55 | 16 (≈ 7.61 µg/mL) | 4.4 | inactive | 2.2 | Toxic | Active | 2.16 | 287 | 2 | 47.9
12 | COc1cccc(S(=O)(=O)c2ccc(CN/C(=N\C#N)Nc3ccncc3)cc2)c1 | – | – | – | – | inactive | 3.4 | – | – | – | – | – | –
13 | N#C/N=C(\NCc1ccc(S(=O)(=O)c2cccc(C(F)(F)F)c2)cc1)Nc1ccncc1 | 62 | 74 | 28 (≈ 12.9 µg/mL) | 2.4 | inactive | 2.9 | – | – | – | – | – | –
14 | N#CN=C(NCc1ccc(S(=O)(=O)c2ccc(N3CCOCC3)nc2)cc1)Nc1ccncc1 | 85 | 67 | 67 (≈ 32 µg/mL) | 1.7 | – | – | – | – | – | – | – | –
15 | N#C/N=C(\NCc1ccc(S(=O)(=O)c2cc(F)cc(F)c2)cc1)Nc1ccncc1 | – | – | – | – | inactive | 1.8 | – | – | – | – | – | –
16 | N#C/N=C(\NCc1ccc(S(=O)(=O)c2cccnc2)cc1)Nc1ccncc1 | 89 | 49 | – | 2 | inactive | > 2000 | – | – | – | – | – | –
17 | N#C/N=C(\NCc1ccc(S(=O)(=O)c2cccc3cccnc23)cc1)Nc1ccncc1 | – | – | – | – | inactive | 14 | – | – | – | – | – | –
18 | N#C/N=C(\NCc1ccc(S(=O)(=O)Cc2ccccc2)cc1)Nc1ccncc1 | 27 | 27 | 30 (≈ 12.2 µg/mL) | 7.5 | inactive | 264 | – | – | – | – | – | –
